Assays:
Assay type in all cases: in vivo, rat
[1] = test system: coronary artery ligated rats (myocardial infarction); assay: Coronary artery ligation, mortality; details: male Sprague-Dawley rats, 10 mg/kg daily by gastric tube from 1 hour after occlusion
Method: (§1) Myocardial infarction was produced in male Sprague-Dawley rats (300-400 g) by occlusion of the left coronary artery. The rats were housed in clear cages in a temperature (19-22° C.) and humidity (50-55% RH) controlled room on a 12 hour light-dark cycle. Food and water were supplied ad libitum. Rats were anaesthized with 1-5% isoflurane in 100% O2 (2 L/minute flow rate). The skin was incised along the left sternal border and the 4th rib was cut proximal to the sternum and a retractor was inserted. The pericardial sac was opened and the heart externalized. The left anterior descending coronary artery was ligated approximately 2 mm from its origin on the aorta using a 6-0 silk suture. The heart was then repositioned in the chest and the incision closed via purse-string sutures. Sham-operated rats underwent identical treatment except that the artery was not ligated. Mortality due to surgery was less than 1%. All animals were allowed to recover, receiving food and water ad libitum for 21 days. Hemodynamic and histological assessments were made. […]
(§2) Rats were divided at random into five groups: sham operated, coronary artery ligated (untreated), coronary artery ligated (pyridoxal-5′-phosphate (P5P) treatment), coronary artery ligated (compound VII treated) and coronary artery ligated (compound XI treated). Treatment with P5P, compound VII and compound XI began 1 hour after coronary occlusion (or sham operation), and continued for 21 days. P5P, compound VII or compound XI (10 mg/kg) were administered daily (9 AM) by gastric tube. This dosage was chosen based on previous experience with P5P.
Mortality in all groups occurred only within the first 24 h after coronary ligation. While in the untreated group 50% of the rats died, the mortality rate dropped to 17-25% in the treated groups (Table I).

[2] = test system: coronary artery ligated rats (cardiac hypertrophy); assay: Cardiac hypertrophy after coronary artery ligation; details: rats 21 days after coronary ligation, 10 mg/kg daily by gastric tube
Method: Myocardial infarction was produced in male Sprague-Dawley rats (300-400 g) by occlusion of the left coronary artery. The rats were housed in clear cages in a temperature (19-22° C.) and humidity (50-55% RH) controlled room on a 12 hour light-dark cycle. Food and water were supplied ad libitum. Rats were anaesthized with 1-5% isoflurane in 100% O2 (2 L/minute flow rate). The skin was incised along the left sternal border and the 4th rib was cut proximal to the sternum and a retractor was inserted. The pericardial sac was opened and the heart externalized. The left anterior descending coronary artery was ligated approximately 2 mm from its origin on the aorta using a 6-0 silk suture. The heart was then repositioned in the chest and the incision closed via purse-string sutures. Sham-operated rats underwent identical treatment except that the artery was not ligated. Mortality due to surgery was less than 1%. All animals were allowed to recover, receiving food and water ad libitum for 21 days. Hemodynamic and histological assessments were made.
as §2
Hypertrophy is a physiological condition of enlargement (increased mass) due to increased stress. Cardiac hypertrophy is assessed by calculating the heart to body mass ratio.

[3] = test system: coronary artery ligated rats (left ventricle hemodynamics); assay: Hemodynamic changes after coronary artery ligation; details: rats 21 days after coronary ligation; 10 mg/kg daily by gastric tube; mean±SD
Method: as §1, with “sutures.” for “sutures. Sham-operated rats underwent identical treatment except that the artery was not ligated. Mortality due to surgery was less than 1%. All animals were allowed to recover, receiving food and water ad libitum for 21 days. Hemodynamic and histological assessments were made.”
The animals prepared as described in Example 29 were anaesthetized with an injected cocktail of ketamine hydrochloirde (60 mg/kg) and xylazine (10 mg/kg). […] The catheter was secured with a silk ligature around the artery, and various hemodynamic parameters including left ventricular systolic pressure (LVSP), left ventricular end diastolic pressure (LVEDP), rate of contraction (+dP/dt), and rate of relaxation (−dP/dt), were recorded and calculated with Acknowledge 3.1 software (Biopac Systems Inc.). The animals were allowed 5-10 minutes to stabilize, after which parameters were measured as averages over three readings.

| SMILES | Mortality (%) [1] | Total dead Rats [1] | Dead Rats 12 hr [1] | Dead Rats 24 hr [1] | Dead Rats 36 hr [1] | Dead Rats 48 hr [1] | Dead Rats 3 days [1] | Cardiac Hypertophy, Heart Weight/Body Weight [2] | LVSP (left ventricular systolic pressure) [3] |
| --- | --- | --- | --- | --- | --- | --- | --- | --- | --- |
| Cc1ncc(C(O)P(=O)(O)O)c(CO)c1O (stereo not drawn) [compound VII, (3-hydroxy-4-hydroxymethyl-2-methyl-5-pyridyl)hydroxymethyl phosphonic Acid] | 21% | 3 | 2 | 1 | 0 | 0 | 0 | significant decrease in cardiac hypertrophy | – |
| Cc1ncc(C(F)P(=O)(O)O)c(CO)c1O (stereo not drawn) [compound XI, (3-hydroxy-4-hydroxymethyl-2-methyl-5-pyridyl)fluoromethyl phosphonic Acid] | 25% | 3 | 3 | 0 | 0 | 0 | 0 | significant decrease in cardiac hypertrophy | 115.0 ± 12.1 |
| Cc1ncc(C(O)P(=O)(O)O)c(CO)c1O (stereo not drawn) [MC-5723, (3-hydroxy-4-hydroxymethyl-2-methyl-5-pyridyl)hydroxymethyl phosphonic Acid] | – | – | – | – | – | – | – | 0.0031 ± 0.0004 | – |
| Cc1ncc(COP(=O)(O)O)c(C=O)c1O [P5P, pyridoxal-5′-phosphate, reference compound] | 17% | 2 | 1 | 1 | 0 | 0 | 0 | – | 120.0 ± 10.6 |
| Cc1ncc(C(F)P(=O)(O)O)c(CO)c1O (stereo not drawn) [MC-5422, (3-hydroxy-4-hydroxymethyl-2-methyl-5-pyridyl)fluoromethyl phosphonic Acid] | – | – | – | – | – | – | – | 0.0032 ± 0.0002 | – |

Reference: patent US20020010158A1, “Cardioprotective phosphonates and malonates” (priority 2000, published 2002)
